The source of these data is patent US10640506B2, “Cyclobutyl substituted pyrrolopyridine and pyrrolopyrimidines derivatives as JAK inhibitors” (Incyte Corporation, priority 2010, dated 2020).

Where two headings read alike, the source gives them in different places.

For assay [1], the target named is human JAK1 (a.a. 837-1142) (Homo sapiens, UniProt P23458). Kind of assay: In vitro JAK kinase assay (HTRF, phosphorylation of biotinylated peptide), JAK1. Type of assay: biochemical. The essentials: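 His-tagged human JAK1 catalytic domain (a.a. 837-1142), baculovirus/insect-cell expressed, phosphorylates a biotinylated peptide for 1 h at room temperature. Reaction stopped with EDTA; product detected by HTRF (SA-APC, Eu-Py20, 40 min binding). IC50 reported as ranges.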
On the technique in general: In TR-FRET formats the signal depends on donor and acceptor labels being close together.

A further assay concerns the target T1, JAK2 (a.a. 828-1132) (Homo sapiens, UniProt O60674).
T1 construct: JAK2 (a.a. 828-1132); His tag (N)
Kind of assay: In vitro JAK kinase assay (HTRF, phosphorylation of biotinylated peptide), JAK2. Type of assay: biochemical. The essentials:
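His-tagged catalytic domains of human JAK1 (a.a. 837-1142) and JAK2 (a.a. 828-1132), baculovirus-expressed, phosphorylate a biotinylated peptide for 1 hour at room temperature. Stopped with EDTA; detected by HTRF using SA-APC and Eu-Py20 antibody after 40 min binding; values binned as ranges.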

human JAK1 (a.a. 837-1142), sequence (P23458 849-1154): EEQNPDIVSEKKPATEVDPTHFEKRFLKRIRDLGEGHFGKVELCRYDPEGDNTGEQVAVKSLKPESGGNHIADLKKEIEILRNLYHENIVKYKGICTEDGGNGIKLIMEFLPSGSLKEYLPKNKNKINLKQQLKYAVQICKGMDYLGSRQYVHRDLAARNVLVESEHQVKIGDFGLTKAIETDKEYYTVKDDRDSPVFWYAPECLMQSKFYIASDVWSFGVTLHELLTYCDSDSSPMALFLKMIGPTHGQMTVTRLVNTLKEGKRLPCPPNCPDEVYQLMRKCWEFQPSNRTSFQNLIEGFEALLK
T1 sequence (O60674 828-1132): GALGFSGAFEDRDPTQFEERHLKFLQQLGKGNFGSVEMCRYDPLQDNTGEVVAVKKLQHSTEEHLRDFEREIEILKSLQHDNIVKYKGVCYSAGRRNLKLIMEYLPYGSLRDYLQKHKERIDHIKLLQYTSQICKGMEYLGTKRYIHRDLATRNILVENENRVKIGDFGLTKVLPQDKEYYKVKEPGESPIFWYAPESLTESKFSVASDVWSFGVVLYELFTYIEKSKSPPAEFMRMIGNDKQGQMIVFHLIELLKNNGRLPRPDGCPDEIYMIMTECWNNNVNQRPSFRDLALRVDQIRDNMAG

For the molecule `N#CC[C@]1(n2cc(-c3ncnc4[nH]ccc34)cn2)C[C@H](N2CCC(Oc3cc(CN4CCC[C@@H]4CO)cc(C(F)(F)F)n3)CC2)C1` [Example 162, {trans-3-(4-{[4-{[(2R)-2-(hydroxymethyl)pyrrolidin-1-yl]methyl}-6-(trifluoromethyl)pyridin-2-yl]oxy}piperidin-1-yl)-1-[4-(7H-pyrrolo[2,3-d]pyrimidin-4-yl)-1H-pyrazol-1-yl]cyclobutyl}acetonitrile], the IC50 – broadly, the concentration that gives 50% inhibition – in assay [1] (Table F, 1 mM ATP) was under 10 nM; on JAK2 (a.a. 828-1132) (Table F, 1 mM ATP), over 100 nM.
For `CC(C)(O)c1cc(C(=O)N2CCN([C@H]3C[C@](CC#N)(n4cc(-c5ccnc6[nH]ccc56)cn4)C3)CC2)nc(C(F)(F)F)c1` [Example 163, {trans-3-(4-{[4-(1-hydroxy-1-methylethyl)-6-(trifluoromethyl)pyridin-2-yl]carbonyl}piperazin-1-yl)-1-[4-(1H-pyrrolo[2,3-b]pyridin-4-yl)-1H-pyrazol-1-yl]cyclobutyl}acetonitrile], the half-inhibitory concentration (IC50) in assay [1] (Table F, 1 mM ATP) is under 10 nM; against JAK2 (a.a. 828-1132) (Table F, 1 mM ATP) it was 25 to 100 nM.
Consider “{cis-3-(4-{[6-(1-hydroxy-1-methylethyl)-2-(trifluoromethyl)pyrimidin-4-yl]carbonyl}piperazin-1-yl)-1-[4-(1H-pyrrolo[2,3-b]pyridin-4-yl)-1H-pyrazol-1-yl]cyclobutyl}acetonitrile [Example 77]”, for which the IC50 is under 10 nM in assay [1] (read-out: JAK1 IC50 (nM) at 1 mM ATP, Table F) and 25 to 100 nM on JAK2 (a.a. 828-1132) (read-out: JAK2 IC50 (nM) at 1 mM ATP, Table F).
